One assay concerns the target human Nav1.8 (Homo sapiens (Human), UniProt Q9Y5Y9). Description: FRET-based membrane potential assay, recombinant human sodium channel Nav1.8. The format is cell-based. The settings on record: HEK293 cells stably expressing recombinant human Nav1.8; depolarization with veratridine (EC80) + scorpion venom. On the procedure:
FRET-Based Membrane Potential Assays.
Recombinant, Human Sodium Channel, Nav1.8.
Two days prior to the experiment, frozen HEK293 cells stably expressing recombinant human Nav1.8 (Essen, Ann Arbor, Mich.) were quickly thawed and plated at 22,500 cells/well in growth medium [MEM (Invitrogen #11095) with 10% FBS (Invitrogen #10082), 1 mM sodium pyruvate (Invitrogen, #C11360), 10 units/mL penicillin/10 U/mL streptomycin/29.2 μg/mL glutamine ((PSG 1%, Invitrogen #10378), 400 μg/mL zeocin (Invitrogen #R250) in black-walled, clear-bottom 384-well poly-D-lysine-coated assay plates (Greiner Bio-One, Frickenhausen, Germany) and incubated in a humidified 5% CO2 incubator at 37° C. On the day of the assay, medium was removed by aspiration, and cells were washed with assay buffer [HBSS (Invitrogen, Carlsbad, Calif.) containing 20 mM HEPES (Invitrogen, Carlsbad, Calif.)]. After washing, 30 μL assay buffer containing the fluorescent voltage-sensor probe CC2-DMPE (Invitrogen, Carlsbad, Calif.) at 20 μM and 0.01% pluronic F-127 (Invitrogen, Carlsbad, Calif.) was added to the cells. Cells were incubated for 40 minutes at room temperature in the dark. Following the incubation, the cells were washed and 30 μL assay buffer containing 2.5 μM DiSBAC2(3) substrate (Invitrogen, Carlsbad, Calif.) and 0.5 mM VABSC-1 (Invitrogen, Carlsbad, Calif.) was added to the cells. The cells were incubated for 60 minutes at room temperature in the dark. Fluorescence readings were made using a FLIPR®^TETRA (Molecular Devices, Sunnyvale Calif.) equipped with voltage-sensor probe optics. The depolarizing agent, veratridine (Sigma-Aldrich, St. Louis, Mo.), was made up at 3× concentrations in assay buffer containing 1 mg/mL scorpion venom (SVqq, from Leiurus quinquestriatus; Sigma-Aldrich, St. Louis, Mo.). The assay agonist/opener concentration was determined each day using a 6-point veratridine concentration curve in duplicate, tested with three concentrations of tetracaine (0.1, 0.06, 0.01 μM all in 0.03% dimethyl sulfoxide) and 0.03% dimethyl sulfoxide control in assay buffer. […] Test compounds in the daughter plate were diluted to (˜3×) solutions in assay buffer immediately before assaying. Using the FLIPR®^TETRA, 20 μL of the (3×) compound solutions were first added to the cells, then 20 μL of depolarizing solution (3×EC80 veratridine+SVqq) were added 3 minutes later to activate the channel. Changes in fluorescence were measured at wavelengths of 440-480 nm and 565-625 nm over the course of the experimental run. Membrane depolarization was expressed as a ratio of the maximum F440-480 nm/F565-625 nm reading above average baseline F440-480 nm/F565-625 nm reading. IC50 values were calculated from curve fits of the ratio data using a four-parameter logistic Hill equation (Accelrys Assay Explorer 3.3 Client, Accelrys, San Diego, Calif.) with percent inhibition plotted against compound concentration.

Another assay concerns the target human Nav1.7 (Homo sapiens (Human), UniProt Q15858). Description: FRET-based membrane potential assay, recombinant human sodium channel Nav1.7. The format is cell-based. The conditions noted are these: HEK293 cells stably expressing recombinant human Nav1.7; depolarization with veratridine (EC80) + scorpion venom. The method, boiled down:
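IC50 derived by four-parameter Hill fit of percent inhibition of depolarization, measured as peak F440-480/F565-625 ratio over baseline. Stable human Nav1.7 HEK293 cells, dye-loaded with CC2-DMPE and DiSBAC2(3)/VABSC-1 at room temperature, received compound 3 min ahead of veratridine (EC80) plus scorpion venom.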

human Nav1.7, sequence (Q15858 whole entry): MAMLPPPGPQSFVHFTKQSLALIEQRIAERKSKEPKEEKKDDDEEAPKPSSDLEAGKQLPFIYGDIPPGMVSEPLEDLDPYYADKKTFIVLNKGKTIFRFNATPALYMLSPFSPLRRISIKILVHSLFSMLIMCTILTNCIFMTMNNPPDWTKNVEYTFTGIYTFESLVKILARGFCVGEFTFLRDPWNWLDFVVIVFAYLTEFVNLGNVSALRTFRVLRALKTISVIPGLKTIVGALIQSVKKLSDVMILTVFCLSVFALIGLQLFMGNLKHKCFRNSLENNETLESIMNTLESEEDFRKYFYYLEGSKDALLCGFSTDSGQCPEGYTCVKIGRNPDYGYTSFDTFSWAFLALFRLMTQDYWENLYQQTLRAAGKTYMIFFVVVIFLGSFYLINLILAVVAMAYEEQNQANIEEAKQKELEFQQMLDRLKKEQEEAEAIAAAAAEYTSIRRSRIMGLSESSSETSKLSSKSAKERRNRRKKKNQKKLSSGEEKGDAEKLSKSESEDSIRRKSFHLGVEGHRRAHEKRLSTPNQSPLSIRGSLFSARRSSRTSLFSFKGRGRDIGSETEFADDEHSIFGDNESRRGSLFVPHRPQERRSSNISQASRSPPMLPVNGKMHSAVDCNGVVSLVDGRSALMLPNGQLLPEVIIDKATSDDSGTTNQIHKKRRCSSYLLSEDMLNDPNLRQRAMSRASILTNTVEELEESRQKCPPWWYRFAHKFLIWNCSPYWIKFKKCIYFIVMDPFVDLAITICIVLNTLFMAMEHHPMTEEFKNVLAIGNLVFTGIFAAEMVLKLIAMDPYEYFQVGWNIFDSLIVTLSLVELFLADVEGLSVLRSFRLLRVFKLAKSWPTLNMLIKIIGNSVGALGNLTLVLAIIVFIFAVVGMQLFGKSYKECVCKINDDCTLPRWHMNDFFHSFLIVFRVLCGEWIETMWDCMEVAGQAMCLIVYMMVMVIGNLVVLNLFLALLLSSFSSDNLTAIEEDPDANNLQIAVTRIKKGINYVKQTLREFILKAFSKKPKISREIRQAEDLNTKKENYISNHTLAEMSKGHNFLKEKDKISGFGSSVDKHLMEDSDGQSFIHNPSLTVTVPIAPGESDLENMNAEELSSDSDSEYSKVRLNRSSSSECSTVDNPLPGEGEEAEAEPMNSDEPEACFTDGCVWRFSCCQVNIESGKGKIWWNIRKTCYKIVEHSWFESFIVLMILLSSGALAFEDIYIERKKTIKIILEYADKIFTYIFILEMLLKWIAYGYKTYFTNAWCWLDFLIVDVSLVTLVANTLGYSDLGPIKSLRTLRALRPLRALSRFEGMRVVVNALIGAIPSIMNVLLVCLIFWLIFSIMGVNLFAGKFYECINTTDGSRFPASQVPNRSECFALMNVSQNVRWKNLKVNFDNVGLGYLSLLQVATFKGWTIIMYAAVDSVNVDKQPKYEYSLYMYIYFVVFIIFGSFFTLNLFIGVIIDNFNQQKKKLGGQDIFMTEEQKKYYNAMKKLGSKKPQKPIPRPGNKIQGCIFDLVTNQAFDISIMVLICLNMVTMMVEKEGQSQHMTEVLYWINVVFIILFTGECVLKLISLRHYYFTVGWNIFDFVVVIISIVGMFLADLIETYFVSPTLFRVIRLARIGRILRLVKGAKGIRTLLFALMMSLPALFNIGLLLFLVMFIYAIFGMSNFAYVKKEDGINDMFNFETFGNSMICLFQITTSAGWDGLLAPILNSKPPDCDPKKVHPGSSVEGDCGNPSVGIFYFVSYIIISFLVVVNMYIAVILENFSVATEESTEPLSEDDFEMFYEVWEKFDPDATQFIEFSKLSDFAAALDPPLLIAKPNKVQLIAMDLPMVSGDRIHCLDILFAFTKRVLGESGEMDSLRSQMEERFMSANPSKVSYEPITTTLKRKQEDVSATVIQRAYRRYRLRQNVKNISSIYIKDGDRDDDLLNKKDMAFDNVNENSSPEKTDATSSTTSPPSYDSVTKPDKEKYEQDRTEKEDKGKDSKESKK
human Nav1.8, sequence (Q9Y5Y9 whole entry): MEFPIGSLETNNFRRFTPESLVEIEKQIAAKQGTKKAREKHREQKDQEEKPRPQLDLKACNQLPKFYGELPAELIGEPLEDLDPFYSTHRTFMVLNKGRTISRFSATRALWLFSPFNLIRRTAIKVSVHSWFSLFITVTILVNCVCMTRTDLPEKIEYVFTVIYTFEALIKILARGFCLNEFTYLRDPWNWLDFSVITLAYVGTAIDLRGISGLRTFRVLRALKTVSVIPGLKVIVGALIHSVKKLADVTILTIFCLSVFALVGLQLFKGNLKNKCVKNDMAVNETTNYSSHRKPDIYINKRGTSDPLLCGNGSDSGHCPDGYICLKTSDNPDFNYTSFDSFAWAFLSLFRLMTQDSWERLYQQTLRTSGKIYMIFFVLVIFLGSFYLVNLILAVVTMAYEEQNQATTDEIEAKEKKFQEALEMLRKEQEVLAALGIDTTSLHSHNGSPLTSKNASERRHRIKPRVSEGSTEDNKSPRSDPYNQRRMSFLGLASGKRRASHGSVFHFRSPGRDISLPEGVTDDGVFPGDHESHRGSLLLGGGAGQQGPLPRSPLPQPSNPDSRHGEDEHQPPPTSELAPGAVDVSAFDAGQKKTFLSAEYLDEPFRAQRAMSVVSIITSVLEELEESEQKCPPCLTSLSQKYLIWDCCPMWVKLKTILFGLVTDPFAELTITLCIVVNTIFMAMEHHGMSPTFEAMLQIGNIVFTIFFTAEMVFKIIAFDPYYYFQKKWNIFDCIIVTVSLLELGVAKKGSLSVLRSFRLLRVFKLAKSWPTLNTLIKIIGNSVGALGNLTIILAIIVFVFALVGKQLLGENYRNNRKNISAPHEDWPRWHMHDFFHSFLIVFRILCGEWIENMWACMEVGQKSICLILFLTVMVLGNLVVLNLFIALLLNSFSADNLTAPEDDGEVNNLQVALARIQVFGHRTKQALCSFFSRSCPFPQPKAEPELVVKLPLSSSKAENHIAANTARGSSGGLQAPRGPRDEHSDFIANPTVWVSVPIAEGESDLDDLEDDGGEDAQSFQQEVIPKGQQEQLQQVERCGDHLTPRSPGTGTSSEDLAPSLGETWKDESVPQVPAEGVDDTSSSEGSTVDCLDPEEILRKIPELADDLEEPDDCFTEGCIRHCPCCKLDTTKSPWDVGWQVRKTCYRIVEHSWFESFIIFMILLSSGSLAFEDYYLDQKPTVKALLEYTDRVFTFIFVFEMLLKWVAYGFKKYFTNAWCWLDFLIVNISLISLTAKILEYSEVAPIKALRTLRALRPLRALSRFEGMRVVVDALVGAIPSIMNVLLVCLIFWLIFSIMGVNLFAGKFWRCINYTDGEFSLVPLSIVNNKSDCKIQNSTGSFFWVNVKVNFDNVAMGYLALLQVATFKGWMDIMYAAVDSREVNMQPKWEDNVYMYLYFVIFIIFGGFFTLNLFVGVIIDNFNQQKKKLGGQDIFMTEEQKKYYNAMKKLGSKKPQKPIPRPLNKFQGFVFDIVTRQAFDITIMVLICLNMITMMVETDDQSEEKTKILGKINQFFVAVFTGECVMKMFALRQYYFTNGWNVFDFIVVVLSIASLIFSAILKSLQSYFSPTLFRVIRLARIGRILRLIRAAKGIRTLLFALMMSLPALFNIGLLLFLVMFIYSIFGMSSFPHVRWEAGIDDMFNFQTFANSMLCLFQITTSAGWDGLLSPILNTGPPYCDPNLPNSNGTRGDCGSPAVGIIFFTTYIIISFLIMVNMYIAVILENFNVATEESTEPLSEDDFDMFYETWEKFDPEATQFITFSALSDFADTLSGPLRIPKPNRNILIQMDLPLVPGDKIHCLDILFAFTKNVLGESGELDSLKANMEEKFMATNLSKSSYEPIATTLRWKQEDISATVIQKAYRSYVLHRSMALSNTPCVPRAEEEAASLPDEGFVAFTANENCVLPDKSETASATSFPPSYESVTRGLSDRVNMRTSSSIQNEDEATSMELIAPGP

Take `CC(C)COC(=O)N1CCN(c2cccc3c2cnn3-c2ccccc2F)C1=O` [Example 5, isobutyl 3-[1-(2-fluorophenyl)-1H-indazol-4-yl]-2-oxoimidazolidine-1-carboxylate]: the IC50 (usually the concentration that inhibits the measured activity by half) at human Nav1.8 came to 0.0572 µM; at human Nav1.7, 0.166 µM. As to `O=C(Cn1ccn(-c2cccc3c2cnn3-c2ccccc2F)c1=O)N1CC[C@H](F)C1` [Example 11, 1-[1-(2-fluorophenyl)-1H-indazol-4-yl]-3-{2-[(3S)-3-fluoropyrrolidin-1-yl]-2-oxoethyl}-1,3-dihydro-2H-imidazol-2-one], the IC50 on human Nav1.8 came to 1.47 µM; at human Nav1.7, 0.483 µM. For `O=C(CN1CCN(c2cccc3c2cnn3-c2ccccc2F)C1=O)N1CCC(F)CC1` [Example 69, 1-[1-(2-fluorophenyl)-1H-indazol-4-yl]-3-[2-(4-fluoropiperidin-1-yl)-2-oxoethyl]imidazolidin-2-one], in that order: 4.8 µM and 2.95 µM. The matching figures for `O=C(CN1CCN(c2cccc3c2cnn3-c2ccccc2F)C1=O)NCC1CCOC1` (stereo not drawn) [Example 75, 2-{3-[1-(2-fluorophenyl)-1H-indazol-4-yl]-2-oxoimidazolidin-1-yl}-N-(tetrahydrofuran-3-ylmethyl)acetamide]: 12.1 µM and 7.49 µM. For `O=C(CN1CCN(c2cccc3c2cnn3-c2ccccc2F)C1=O)N[C@H]1CCOC1` [Example 87, 2-{3-[1-(2-fluorophenyl)-1H-indazol-4-yl]-2-oxoimidazolidin-1-yl}-N-[(3S)-tetrahydrofuran-3-yl]acetamide], in that order: 5.56 µM and 2.46 µM. With `O=C(CN1CCN(c2cccc3c2cnn3-c2cccc(OC(F)(F)F)c2)C1=O)N1CC[C@H](F)C1` [Example 88, 1-{2-[(3S)-3-fluoropyrrolidin-1-yl]-2-oxoethyl}-3-{1-[3-(trifluoromethoxy)phenyl]-1H-indazol-4-yl}imidazolidin-2-one], the results for the IC50 at human Nav1.8 and on human Nav1.7 were 1.37 µM and 0.351 µM, respectively.

On to `CCN(CC)C(=O)CN1CCN(c2cccc3c2cnn3-c2ccccc2F)C1=O` [Example 93, N,N-diethyl-2-{3-[1-(2-fluorophenyl)-1H-indazol-4-yl]-2-oxoimidazolidin-1-yl}acetamide], for which the IC50 on human Nav1.8 was 5.18 µM; on human Nav1.7, 10.7 µM.

Turning to `O=C1N(c2cccc3c2cnn3-c2ccccc2F)CCN1[C@H]1CC[C@H](O)CC1` [Example 265, 1-[1-(2-fluorophenyl)-1H-indazol-4-yl]-3-(trans-4-hydroxycyclohexyl)imidazolidin-2-one], the IC50 on human Nav1.7 was 8.15 µM. Still for that read-out and setting: as for `O=C1CCC(N2CCN(c3cccc4c3cnn4-c3ccccc3F)C2=O)CC1` [Example 266, 1-[1-(2-fluorophenyl)-1H-indazol-4-yl]-3-(4-oxocyclohexyl)imidazolidin-2-one], the figure is 3.02 µM; as for `CC(C)(C)OC(=O)N1CC(N2CCN(c3cccc4c3cnn4-c3ccccc3F)C2=O)C1` [Example 267, tert-butyl 3-{3-[1-(2-fluorophenyl)-1H-indazol-4-yl]-2-oxoimidazolidin-1-yl}azetidine-1-carboxylate], 1.09 µM. Regarding `O=C1N(c2cccc3c2cnn3-c2ccccc2F)CCN1C1CNC1` [Example 268, 1-(azetidin-3-yl)-3-[1-(2-fluorophenyl)-1H-indazol-4-yl]imidazolidin-2-one], the IC50 at human Nav1.7 was determined as 15 µM. On the same count and under the same terms, as for `O=C1N(c2cccc3c2cnn3-c2ccccc2F)CCN1C1CN(C(=O)C2(O)CC2)C1` [Example 269, 1-[1-(2-fluorophenyl)-1H-indazol-4-yl]-3-{1-[(1-hydroxycyclopropyl)carbonyl]azetidin-3-yl}imidazolidin-2-one], the figure is 5.79 µM; as for `NC(=O)C(=O)N1CC(N2CCN(c3cccc4c3cnn4-c3ccccc3F)C2=O)C1` [Example 270, 2-(3-{3-[1-(2-fluorophenyl)-1H-indazol-4-yl]-2-oxoimidazolidin-1-yl}azetidin-1-yl)-2-oxoacetamide], 5.87 µM; as for `CS(=O)(=O)N1CC(N2CCN(c3cccc4c3cnn4-c3ccccc3F)C2=O)C1` [Example 271, 1-[1-(2-fluorophenyl)-1H-indazol-4-yl]-3-[1-(methylsulfonyl)azetidin-3-yl]imidazolidin-2-one], 3.45 µM. Still for that read-out and setting: the same measure for `O=C1N(c2cccc3c2cnn3-c2ccccc2F)CCN1[C@@H]1CCCC[C@H]1OCc1ccccc1` [Example 272, 1-[(1R,2R)-2-(benzyloxy)cyclohexyl]-3-[1-(2-fluorophenyl)-1H-indazol-4-yl]imidazolidin-2-one]: 0.338 µM. The same measure, in the same setting: as for `O=C1N(c2cccc3c2cnn3-c2ccccc2F)CCN1[C@@H]1CCCC[C@H]1O` [Example 273, 1-[1-(2-fluorophenyl)-1H-indazol-4-yl]-3-[(1R,2R)-2-hydroxycyclohexyl]imidazolidin-2-one], the figure is 4.86 µM; as for `O=C(CN1CCN(c2cccc3c2cnn3-c2ccccc2)C1=O)N1CCCC1` [Example 277, 1-[2-oxo-2-(pyrrolidin-1-yl)ethyl]-3-(1-phenyl-1H-indazol-4-yl)imidazolidin-2-one], 3.06 µM.

Take `O=C(CN1CCN(c2cccc3c2cnn3-c2ccccn2)C1=O)N1CCCC1` [Example 278, 1-[2-oxo-2-(pyrrolidin-1-yl)ethyl]-3-[1-(pyridin-2-yl)-1H-indazol-4-yl]imidazolidin-2-one]: at human Nav1.7, the IC50 stood at 5.78 µM.

`CCOC(=O)/C=C\N1CCN(c2cccc3c2cnn3-c2ccccc2F)C1=O` [Example 287, ethyl (2Z)-3-{3-[1-(2-fluorophenyl)-1H-indazol-4-yl]-2-oxoimidazolidin-1-yl}acrylate]: at human Nav1.7, the IC50 stood at 5.8 µM. Still for that read-out and setting: the same measure for `CCOC(=O)/C=C/N1CCN(c2cccc3c2cnn3-c2ccccc2F)C1=O` [Example 288, ethyl (2E)-3-{3-[1-(2-fluorophenyl)-1H-indazol-4-yl]-2-oxoimidazolidin-1-yl}acrylate]: 5.3 µM.

`CO[C@H]1C[C@H](NC(=O)CN2CCN(c3cccc4c3cnn4-c3ccccc3F)C2=O)C1` [Example 326, 2-{3-[1-(2-fluorophenyl)-1H-indazol-4-yl]-2-oxoimidazolidin-1-yl}-N-(trans-3-methoxycyclobutyl)acetamide]: at human Nav1.8, the IC50 is 5.25 µM.

Regarding `CC1(C)CC1NC(=O)CN1CCN(c2cccc3c2cnn3-c2ccccc2F)C1=O` (stereo not drawn) [Example 328, N-(2,2-dimethylcyclopropyl)-2-{3-[1-(2-fluorophenyl)-1H-indazol-4-yl]-2-oxoimidazolidin-1-yl}acetamide], the half-inhibitory concentration (IC50) on human Nav1.7 worked out at 3.02 µM. Turning to `O=C(CN1CCN(c2cccc3c2cnn3-c2ccccc2F)C1=O)N1CCC(C(F)F)C1` (stereo not drawn) [Example 330, 1-{2-[3-(difluoromethyl)pyrrolidin-1-yl]-2-oxoethyl}-3-[1-(2-fluorophenyl)-1H-indazol-4-yl]imidazolidin-2-one], the IC50 at human Nav1.7 came to 1.15 µM. As for `CN1CCN(c2cccc3c2cnn3-c2ccccc2F)C1=O` [Example 344, 1-[1-(2-fluorophenyl)-1H-indazol-4-yl]-3-methylimidazolidin-2-one], at human Nav1.8, the IC50 is 7.38 µM.

Turning to `O=C(CN1CCN(c2cccc3c2cnn3-c2ccccc2F)C1=O)NC1CCC(F)(F)CC1` [Example 356, N-(4,4-difluorocyclohexyl)-2-{3-[1-(2-fluorophenyl)-1H-indazol-4-yl]-2-oxoimidazolidin-1-yl}acetamide], the IC50 at human Nav1.7 is 1.86 µM. Still for that read-out and setting: the same measure for `CC(C)(C)CNC(=O)CN1CCN(c2cccc3c2cnn3-c2ccccc2F)C1=O` [Example 357, N-(2,2-dimethylpropyl)-2-{3-[1-(2-fluorophenyl)-1H-indazol-4-yl]-2-oxoimidazolidin-1-yl}acetamide]: 3.06 µM.

The record behind these values is US9783527B2, “Indazole ureas and method of use” (AbbVie Inc., priority 2014, dated 2017).
